For one assay, the target named is T1, STING protein (Homo sapiens, UniProt Q86WV6, H232R).
T1 construct: host or cells: THP-1 dual reporter cells, TMEM173 modified from HAQ to R232 (THP1-dual-KI R232)
The assay is described as follows: Cell based reporter assay of IRF activation (THP1-dual-KI R232, IRF luciferase). Particulars: THP-1; read-out: THP1-dual-KI R232_IRF(Luciferase)_Activity Maximum measured (%). An outline of the steps: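 THP-1 monocytes stably carried an ISG54/5×ISRE firefly luciferase IRF reporter, with TMEM173 knock-in H71R A230G Q293R (R232 variant), and there was no PMA pre-activation. Compounds were tested at 8 points, 2-fold, in duplicate from 150 µM. Cell Titer Glo was applied after supernatant removal.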
Background: A reporter such as luciferase makes a cellular process visible.

For assay [1], the target named is T2, human STING protein (140-379) (Homo sapiens, UniProt Q86WV6, H232R).
T2 construct: 6XHIS-SUMO-hSTING (140-379); made in house; host or cells: BL-21(DE3) E. coli, pET vector
T2 sequence (Q86WV6 140-379 H232R): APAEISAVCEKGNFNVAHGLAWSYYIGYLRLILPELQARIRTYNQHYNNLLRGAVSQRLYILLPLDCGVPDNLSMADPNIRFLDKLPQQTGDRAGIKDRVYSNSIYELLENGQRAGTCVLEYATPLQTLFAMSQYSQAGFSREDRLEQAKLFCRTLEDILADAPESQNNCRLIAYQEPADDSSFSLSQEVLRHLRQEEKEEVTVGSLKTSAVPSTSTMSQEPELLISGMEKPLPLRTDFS
The assay is described as follows: Radiometric filtration binding competition assay (WT_FBA_HIS-SUMO-hSWAT). Particulars: read-out: WT-hSWAT IC50. An outline of the steps: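 Compounds (2-fold dilutions, 8 points, top 300 μM) were preincubated for 30 min with 0.5 μM recombinant C-terminal STING domain, human residues 140-379 or mouse residues 139-328, His-SUMO tagged. Displacement of a tritium-labelled probe was read by filtration and scintillation counting. Dose-response fits gave IC50, then Ki.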

A further assay concerns the target T3, hSTING-R232 (Homo sapiens, UniProt Q86WV6, H232R).
T3 construct: recombinant mouse or human STING protein (aa140-379); 6xHis-SUMO elsewhere) (cleaved yes); made in house
In words: STING Differential Scanning Fluorimetry (DSF) assay, human. In kind it is binding. As to conditions: human STING R232-WT, 5 μM protein. The gist of the method:
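Purified STING C-terminal domain (aa140-379, R232), human or mouse, at 5 μM in 100 mM NaCl, 30 mM HEPES pH 7.5 with SYBR Orange, was heated at 0.5° C./min. Tm came from dF/dT; ΔTm and FC50 were derived from an 11-point 2-fold series from 300 μM, in duplicate.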
A general note: DSF heats the sample and reads unfolding from a dye or from intrinsic fluorescence.

A word on the IC50: it is the concentration needed to halve the response being measured.

T3 sequence (Q86WV6 140-379 H232R): as above
T1 sequence (Q86WV6 whole entry H232R): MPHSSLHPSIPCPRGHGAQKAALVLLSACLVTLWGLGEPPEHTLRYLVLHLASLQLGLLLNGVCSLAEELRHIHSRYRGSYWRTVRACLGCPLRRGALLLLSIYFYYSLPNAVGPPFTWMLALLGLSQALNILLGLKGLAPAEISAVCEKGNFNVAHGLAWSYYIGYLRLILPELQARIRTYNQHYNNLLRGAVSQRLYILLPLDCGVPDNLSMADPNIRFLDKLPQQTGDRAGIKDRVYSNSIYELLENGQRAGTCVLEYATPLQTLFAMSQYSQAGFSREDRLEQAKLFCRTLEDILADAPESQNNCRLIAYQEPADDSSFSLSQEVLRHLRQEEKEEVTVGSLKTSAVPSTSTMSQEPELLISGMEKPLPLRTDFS

In the case of `Cc1ccc2c(=O)c3ccc(C(C)(C)C#N)nc3n(CC(=O)O)c2c1N(C)C` [Compound 64, sodium 2-(2-(2-cyanopropan-2-yl)-9-(dimethylamino)-8-methyl-5-oxobenzo[b][1,8]naphthyridin-10(5H)-yl)acetate], the Emax at STING protein was > 50%. The IC50 in assay [1] lay within 20 to 100 µM. At hSTING-R232, the “WT_DSF_hSWAT Tm Shift (° C.)” value is recorded as “D (“D” > 7° C.)”.

In the case of `CSc1c(Cl)ccc2c(=O)c3ccc(N(C)C4CC(C#N)C4)nc3n(CC(=O)O)c12` (stereo not drawn) [Compound 49, sodium 2-(8-chloro-2-((3-cyanocyclobutyl)(methyl)amino)-9-(methylthio)-5-oxobenzo[b][1,8]naphthyridin-10(5H)-yl)acetate], the Emax at STING protein is > 50%. Further, the IC50 in assay [1] was 20 to 100 µM. Further, at hSTING-R232, the “WT_DSF_hSWAT Tm Shift (° C.)” value is “D (“D” > 7° C.)”.

As to `CCc1nc2c(cc1Cl)c(=O)c1ccc(Cl)c(N(C)C)c1n2CC(=O)O` [Compound 17, 2-(3,8-dichloro-9-(dimethylamino)-2-ethyl-5-oxobenzo[b][1,8]naphthyridin-10(5H)-yl)acetic acid], the Emax at STING protein is > 50%. Further, the IC50 in assay [1] lay in the range of 20 to 100 µM. The “WT_DSF_hSWAT Tm Shift (° C.)” value at hSTING-R232 is “C (“C” = 2-7° C.)”.

With `C=Cc1c(Cl)ccc2c(=O)c3ccc(N(C)C)nc3n(CC(=O)O)c12` [Compound 78, 2-(8-chloro-2-(dimethylamino)-5-oxo-9-vinylbenzo[b][1,8]naphthyridin-10(5H)-yl)acetic acid], at STING protein, the Emax was > 50%. Besides, in assay [1], the IC50 lay within 20 to 100 µM. For the same compound, the “WT_DSF_hSWAT Tm Shift (° C.)” value on hSTING-R232 is “D (“D” > 7° C.)”.

Consider `CSc1c(Cl)ccc2c(=O)c3ccc(N(C)CC4CCOCC4)nc3n(CC(=O)O)c12` [Compound 27, 2-(8-chloro-2-(methyl((tetrahydro-2H-pyran-4-yl)methyl)amino)-9-(methylthio)-5-oxobenzo[b][1,8]naphthyridin-10(5H)-yl)acetic acid], for which the Emax on STING protein was > 50%. Moreover, in assay [1], the IC50 is 20 to 100 µM. Further, the “WT_DSF_hSWAT Tm Shift (° C.)” value on hSTING-R232 was “D (“D” > 7° C.)”.

For `CO[C@H]1C[C@@H](N(CC2CC2)c2ccc3c(=O)c4ccc(Cl)c(SC)c4n(CC(=O)O)c3n2)C1` [Compound 43, sodium 2-(8-chloro-2-((cyclopropylmethyl)(3-methoxycyclobutyl)amino)-9-(methylthio)-5-oxobenzo[b][1,8]naphthyridin-10(5H)-yl)acetate], the Emax on STING protein is > 50%. In addition, the IC50 in assay [1] was < 20 µM. Moreover, the “WT_DSF_hSWAT Tm Shift (° C.)” value on hSTING-R232 is “D (“D” > 7° C.)”.

In the case of `CCOc1c(Cl)ccc2c(=O)c3ccc(C(C)(C)C#N)nc3n(CC(=O)O)c12` [Compound 25, sodium 2-(8-chloro-2-(2-cyanopropan-2-yl)-9-ethoxy-5-oxobenzo[b][1,8]naphthyridin-10(5H)-yl)acetate], the Emax on STING protein was > 50%. In addition, in assay [1], the IC50 lay in the range of 20 to 100 µM. Moreover, the “WT_DSF_hSWAT Tm Shift (° C.)” value at hSTING-R232 was “D (“D” > 7° C.)”.

`CO[C@H]1C[C@@H](N(C)c2ccc3c(=O)c4ccc(C)c(N(C)C)c4n(CC(=O)O)c3n2)C1` [Compound 67, 2-(9-(dimethylamino)-2-(((1s,3s)-3-methoxycyclobutyl)(methyl)amino)-8-methyl-5-oxobenzo[b][1,8]naphthyridin-10(5H)-yl)acetic acid]: on STING protein, the Emax is > 50%. Also, in assay [1], the IC50 was < 20 µM. At hSTING-R232, the “WT_DSF_hSWAT Tm Shift (° C.)” value is “D (“D” > 7° C.)”.

Consider `CSc1c(C)ccc2c(=O)c3ccc(C(C)(C)C)nc3n(CC(=O)O)c12` [Compound 63, sodium 2-(2-(tert-butyl)-8-methyl-9-(methylthio)-5-oxobenzo[b][1,8]naphthyridin-10(5H)-yl)acetate], for which the Emax at STING protein was > 50%. Also, in assay [1], the IC50 lay in the range of 20 to 100 µM. Moreover, at hSTING-R232, the “WT_DSF_hSWAT Tm Shift (° C.)” value is recorded as “D (“D” > 7° C.)”.

As for `CCOc1c(Cl)ccc2c(=O)c3ccc(N(CCOC)CC(F)F)nc3n(CC(=O)O)c12` [Compound 52, sodium 2-(8-chloro-2-((2,2-difluoroethyl)(2-methoxyethyl)amino)-9-ethoxy-5-oxobenzo[b][1,8]naphthyridin-10(5H)-yl)acetate], the Emax on STING protein is > 50%. Besides, the IC50 in assay [1] is 100 to 300 µM. The “WT_DSF_hSWAT Tm Shift (° C.)” value on hSTING-R232 is “C (“C” = 2-7° C.)”.

With `CC(C)c1ccc2c(=O)c3ccc(Cl)c(N(C)C)c3n(CC(=O)O)c2n1` [Compound 7], the Emax at STING protein was > 50%. Also, in assay [1], the IC50 is < 20 µM. Also, the “WT_DSF_hSWAT Tm Shift (° C.)” value on hSTING-R232 is recorded as “D (“D” > 7° C.)”.

For the compound `CSc1c(Cl)ccc2c(=O)c3ccc(N(C)CCS(C)(=O)=O)nc3n(CC(=O)O)c12` [Compound 34, Sodium 2-{8-chloro-2-[(2-methanesulfonylethyl)(methyl)amino]-9-(methylsulfanyl)-5-oxobenzo[b]1,8-naphthyridin-10-yl}acetate], the Emax at STING protein was 25 to 50%. Besides, the IC50 in assay [1] lay in the range of 20 to 100 µM. Further, the “WT_DSF_hSWAT Tm Shift (° C.)” value on hSTING-R232 is recorded as “D (“D” > 7° C.)”.

For the compound `CCc1ccc2c(=O)c3ccc(Cl)c(N(C)C)c3n(CC(=O)O)c2n1` [Compound 8], the Emax at STING protein is > 50%. In addition, in assay [1], the IC50 was < 20 µM. On hSTING-R232, the “WT_DSF_hSWAT Tm Shift (° C.)” value was “D (“D” > 7° C.)”.

On to `COCCN(CC(F)F)c1ccc2c(=O)c3ccc(Cl)c(SC)c3n(CC(=O)O)c2n1` [Compound 51, sodium 2-(8-chloro-2-((2,2-difluoroethyl)(2-methoxyethyl)amino)-9-(methylthio)-5-oxobenzo[b][1,8]naphthyridin-10(5H)-yl)acetate], for which the Emax at STING protein is > 50%. In addition, the IC50 in assay [1] lay in the range of 20 to 100 µM. In addition, the “WT_DSF_hSWAT Tm Shift (° C.)” value at hSTING-R232 is recorded as “D (“D” > 7° C.)”.

For `COCCN(c1ccc2c(=O)c3ccc(Cl)c(SC)c3n(CC(=O)O)c2n1)C1CC1` [Compound 28, sodium 2-(8-chloro-2-(cyclopropyl(2-methoxyethyl)amino)-9-(methylthio)-5-oxobenzo[b][1,8]naphthyridin-10(5H)-yl)acetate], the Emax on STING protein was > 50%. The IC50 in assay [1] is < 20 µM. Moreover, on hSTING-R232, the “WT_DSF_hSWAT Tm Shift (° C.)” value is “D (“D” > 7° C.)”.

Regarding `COc1c(Cl)ccc2c(=O)c3ccc(C(C)C)nc3n(CC(=O)O)c12` [Compound 1], at STING protein, the Emax is > 50%. Also, in assay [1], the IC50 is 100 to 300 µM. In addition, the “WT_DSF_hSWAT Tm Shift (° C.)” value at hSTING-R232 is recorded as “D (“D” > 7° C.)”.

Turning to `CN(C)c1ccc2c(=O)c3ccc(Cl)c(N(C)C)c3n(CC(=O)O)c2n1` [Compound 19, sodium 2-(8-chloro-2,9-bis(dimethylamino)-5-oxobenzo[b][1,8]naphthyridin-10(5H)-yl)acetate], the Emax on STING protein is > 50%. Further, in assay [1], the IC50 lay within 20 to 100 µM. Besides, the “WT_DSF_hSWAT Tm Shift (° C.)” value on hSTING-R232 is “D (“D” > 7° C.)”.

Take `COC1CC(CN(C)c2ccc3c(=O)c4ccc(Cl)c(SC)c4n(CC(=O)O)c3n2)C1` (stereo not drawn) [Compound 39, Sodium 2-(8-chloro-2-(((3-methoxycyclobutyl)methyl)(methyl)amino)-9-(methylthio)-5-oxobenzo[b][1,8]naphthyridin-10(5H)-yl)acetate]: the Emax at STING protein was > 50%. Moreover, the IC50 in assay [1] was in the range of 20 to 100 µM. Moreover, the “WT_DSF_hSWAT Tm Shift (° C.)” value on hSTING-R232 is given as “D (“D” > 7° C.)”.

Regarding `CSc1c(Cl)ccc2c(=O)c3ccc(N(C)C4CC(OC(F)F)C4)nc3n(CC(=O)O)c12` (stereo not drawn) [Compound 45, Sodium 2-(8-chloro-2-((3-(difluoromethoxy)cyclobutyl)(methyl)amino)-9-(methylthio)-5-oxobenzo[b][1,8]naphthyridin-10(5H)-yl)acetate], the Emax at STING protein was > 50%. Further, the IC50 in assay [1] lay within 20 to 100 µM. For the same compound, the “WT_DSF_hSWAT Tm Shift (° C.)” value at hSTING-R232 is “D (“D” > 7° C.)”.

Consider `CCOc1c(Cl)ccc2c(=O)c3ccc(N(CCOC)C4CC4)nc3n(CC(=O)O)c12` [Compound 29, sodium 2-(8-chloro-2-(cyclopropyl(2-methoxyethyl)amino)-9-ethoxy-5-oxobenzo[b][1,8]naphthyridin-10(5H)-yl)acetate], for which the Emax at STING protein was > 50%. Moreover, the IC50 in assay [1] lay within 20 to 100 µM. Besides, the “WT_DSF_hSWAT Tm Shift (° C.)” value at hSTING-R232 is recorded as “D (“D” > 7° C.)”.

`CN(C)c1c(Cl)ccc2c(=O)c3ccc(N(C)CCn4ccnc4)nc3n(CC(=O)O)c12` [Compound 80, sodium 2-[8-chloro-9-(dimethylamino)-2-{[2-(imidazole-1-yl)ethyl](methyl)amino}-5-oxobenzo[b]1,8-naphthyridin-10-yl]acetate]: the Emax at STING protein was > 50%. In assay [1], the 50% inhibitory concentration (IC50) was in the range of 20 to 100 µM. Further, the “WT_DSF_hSWAT Tm Shift (° C.)” value on hSTING-R232 is “D (“D” > 7° C.)”.

Regarding `CN(C)c1c(Cl)ccc2c(=O)c3ccc(C(C)(C)C(N)=O)nc3n(CC(=O)O)c12` [Compound 20, 2-(2-(1-amino-2-methyl-1-oxopropan-2-yl)-8-chloro-9-(dimethylamino)-5-oxobenzo[b][1,8]naphthyridin-10(5H)-yl)acetic acid], the Emax on STING protein is > 50%. For the same compound, the IC50 in assay [1] is 100 to 300 µM. For the same compound, the “WT_DSF_hSWAT Tm Shift (° C.)” value at hSTING-R232 is on record as “C (“C” = 2-7° C.)”.

Consider `CSc1c(Cl)ccc2c(=O)c3ccc(C4(C)CC4)nc3n(CC(=O)O)c12` [Compound 68, sodium 2-(8-chloro-2-(1-methylcyclopropyl)-9-(methylthio)-5-oxobenzo[b][1,8]naphthyridin-10(5H)-yl)acetate], for which the Emax on STING protein is > 50%. Further, the concentration for half-maximal inhibition (IC50) in assay [1] is < 20 µM. Moreover, the “WT_DSF_hSWAT Tm Shift (° C.)” value on hSTING-R232 is “D (“D” > 7° C.)”.

(Values after patent publication US20220251079A1, “BENZO[B][1,8]NAPHTHYRIDINE ACETIC ACID DERIVATIVES AND METHODS OF USE” (STINGTHERA, INC., priority 2019, published 2022).)
